Measurements: publication PMC4773869, “Influence of plasma-activated compounds on melanogenesis and tyrosinase activity” (Scientific Reports, 2016)
Like-named read-outs stand apart in the source and are kept apart here.

Experiments:
[1] = tested on: cAMP in B16F10 cells; experiment: Intracellular cAMP measurement (cAMP kit); assay type: cell-based, murine; conditions: for cAMP level: PAED (plasma-treated compound), compared with as-synthesized compound and control; for cAMP level compared to the control: as-synthesized compound, control: media only with cells
Experimental: For cAMP measurement, the 4b and 6a were treated with plasma for 3, 5, and 10 min, and then added to the cells, pre-incubated with or without α-MSH (100 nM) for 24 hr. The cells were trypsinised and centrifuged to obtain the cell pellets. The cell pellet was lysed and the cAMP level was measured using a cAMP Kit (Abcam, USA) according to the manufacturer’s instructions.

[2] = molecular target: T1, mushroom tyrosinase (Agaricus bisporus, UniProt C7FF04); experiment: Circular dichroism analysis of the secondary structure of mushroom tyrosinase; conditions: tyrosinase + as-synthesized compound (0 min plasma), 0.1 mM; for Turn % of tyrosinase: enzyme alone 7; for α-helix % of tyrosinase: enzyme alone 16; for β-sheet % of tyrosinase: enzyme alone 33; for Random coil % of tyrosinase: enzyme alone 44
Experimental: The structural changes in tyrosinase after incubation with ED and PAED were plotted in Fig. 5. […] We observed that the control tyrosinase enzyme has 16% α-helix, 33% β-sheets, 7% turn, and 44% random coil. After the interaction with 4a, the amount of α-helix changed to 15% and β-sheets changed to 35%. On the other hand, after the plasma treatment of 4a the amount of α-helix changed to 17% and β-sheets changed to 31%. While, after interacting with 4b, the amount of α-helix is 16.0%, β-sheets 29%, turn 10%, and random coil is 45.0%. However, plasma-activated 4b interacts differently with tyrosinase enzyme, showing 16% α-helix, 33% β-sheets, 6% turn, and 45% random coil. When 6a ED interacted with tyrosinase enzyme, we observed 20% α-helix, 25% β-sheets, 11.0% turn, and 44% random coil. However, 6a PAED interacts with tyrosinase enzyme, the α-helix changed to 19%, β-sheets 28%, turn 9%, and random coil 44%. […] To obtain further detail on the interaction of the ED with tyrosinase enzyme, we studied the molecular docking. For the CD spectroscopic studies[65][66][67] a J-815 spectrophotometer (Jasco, Japan) was used, equipped with a Peltier system that controlled the temperature. (1S)-(+)-10-camphorsulfonic acid (Aldrich, Milwaukee, WI) with a molar extinction coefficient of 34.5 M/cm at 285 nm and a 2.36 M/cm molar ellipticity (θ) at 295 nm was used for the CD calibrations. The samples were pre-equilibrated at the desired temperature for 15 min, and the scan speed was fixed for adaptative sampling (error F 0.01) with a response time of 1 sec and a 1 nm bandwidth. The secondary structure of the mushroom tyrosinase was monitored by using a 1.0 cm path length cuvette. The mushroom tyrosinase (0.2 mg/ml) was prepared in phosphate buffer (20 mM) at pH 6.8 for CD analysis. We used the 0.1 mM concentration of all derivatives in 1 ml buffer solution, with or without 10 min plasma treatment. All spectra were collected in triplicate from 200 to 250 nm and the background was corrected against the buffer (blank). The percentages of secondary structures of proteins were calculated using inbuilt Jasco software.
Target sequence in this assay (C7FF04 2-392): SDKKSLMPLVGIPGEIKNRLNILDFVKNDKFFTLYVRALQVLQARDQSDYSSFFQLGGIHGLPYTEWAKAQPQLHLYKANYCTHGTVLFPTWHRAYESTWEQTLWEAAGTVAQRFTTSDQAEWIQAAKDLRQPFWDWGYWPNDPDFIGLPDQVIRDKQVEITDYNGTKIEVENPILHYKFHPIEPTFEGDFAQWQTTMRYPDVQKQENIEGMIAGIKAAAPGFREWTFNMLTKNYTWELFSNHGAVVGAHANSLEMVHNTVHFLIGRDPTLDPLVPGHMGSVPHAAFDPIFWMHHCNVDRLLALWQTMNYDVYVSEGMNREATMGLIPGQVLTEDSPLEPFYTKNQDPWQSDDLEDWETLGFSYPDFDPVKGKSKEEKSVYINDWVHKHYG

[3] = molecular target: T1, mushroom tyrosinase; experiment: Mushroom tyrosinase inhibition assay (L-DOPA, dopachrome at 492 nm); assay type: biochemical; set-up: purchased Sigma Chemical Co. USA; conditions: mean ± SD, read-out: Tyrosinase inhibitory activity IC50 (converted)
Experimental: To determine the action of ED and PAED, we checked the mushroom tyrosinase inhibitory activity in a cell-free environment. […] Moreover, after plasma treatment for different time intervals, we observed that inhibition activity of 4a, 4b, 4d and 6a was improved more as compared to without treatment. […] However, we observed the highest relative improvement in IC50 value of compound 4b among all ED compounds at 10 min plasma treatment. […] Therefore, we used the 4b and 6a compounds for further investigations, based on the decrease in IC50 value to a global minimum of the experiment after plasma treatment.
The mushroom tyrosinase was used for in vitro bioassays as described previously with some modifications. Briefly, 140 μl of phosphate buffer (20 mM, pH 6.8), 20 μl of mushroom tyrosinase (30 U/ml), and 20 μl of the inhibitor solution were placed in the wells of a 96-well plate. After pre-incubation for 10 min at room temperature, 20 μl of L-DOPA (3,4-dihydroxyphenylalanine) (0.85 mM) was added and the plate was further incubated at 25 °C for 20 min. Subsequently the absorbance of dopachrome was measured at 492 nm using a micro plate reader (OPTI Max, Tunable). Kojic acid was used as a reference inhibitor. The extent of inhibition by the test compounds was expressed as the […] necessary to achieve 50% inhibition (IC50). Each concentration was analyzed in three independent experiments run in triplicate. The IC50 values were determined by the data analysis and graphing software, Origin.
Target sequence in this assay (C7FF04 1-392): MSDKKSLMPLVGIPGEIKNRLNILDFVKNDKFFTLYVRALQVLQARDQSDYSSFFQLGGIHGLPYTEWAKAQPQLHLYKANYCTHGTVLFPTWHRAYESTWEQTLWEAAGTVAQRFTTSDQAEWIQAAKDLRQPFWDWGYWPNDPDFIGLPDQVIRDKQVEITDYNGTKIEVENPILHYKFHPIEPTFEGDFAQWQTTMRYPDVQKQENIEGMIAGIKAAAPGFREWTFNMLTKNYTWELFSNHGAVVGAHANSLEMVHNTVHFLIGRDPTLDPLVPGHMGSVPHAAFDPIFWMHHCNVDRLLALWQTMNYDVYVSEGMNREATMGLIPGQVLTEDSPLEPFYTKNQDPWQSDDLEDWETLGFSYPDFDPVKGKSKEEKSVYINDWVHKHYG

[4] = Con: as-synthesized, before plasma treatment, cell-free
[5] = compound after 3 min N2 APPJ plasma treatment
[6] = compound after 5 min N2 APPJ plasma treatment
[7] = compound after 10 min N2 APPJ plasma treatment

Structure (SMILES) | cAMP level [1] | cAMP level compared to the control [1] | Turn % of tyrosinase [2] | α-helix % of tyrosinase [2] | α-helix % of tyrosinase ([2]; listed as 4b-0 min) | β-sheet % of tyrosinase [2] | Random coil % of tyrosinase [2] | Random coil % of tyrosinase ([2]; listed as 4b-0 min) | IC50 [3, 4] | IC50 [3, 5] | IC50 [3, 6] | IC50 [3, 7] | Turn % of tyrosinase ([2]; listed as 6a-0 min)
C=CCc1ccc(OC(=O)COC(=O)c2ccc(O)cc2)c(OC)c1 [4b, 2-[2-methoxy-4-(prop-2-en-1-yl)phenoxy]-2-oxoethyl 4-hydroxybenzoate] | enhanced even further | increased | 10% | 16.0% | 16% | 29% | 45.0% | 45% | 84.7 µM | 70.1 µM | 67.2 µM | 40.9 µM | 
C=CCc1ccc(OC(=O)COC(=O)/C=C/c2ccc(O)cc2)c(OC)c1 [6a, 2-[2-methoxy-4-(prop-2-en-1-yl)phenoxy]-2-oxoethyl(2E)-3-(4-hydroxyphenyl)prop-2-enoate] | enhanced even further | increased | 11.0% | 20% |  | 25% | 44% |  | 13.6 µM | 13.6 µM | 13.6 µM | 8.14 µM | 11%
